target: human GPR17 short isoform (Homo sapiens, UniProt Q13304); test: hGPR17 cAMP assay (GPR17 cAMP Assay Protocol, antagonist mode); type: cell-based; conditions: CHO-K1 cells stably expressing untagged human GPR17 short isoform; EC80 of agonist MDL29,951; forskolin 15 μM; 30 min, room temperature; TR-FRET cAMP readout
Procedure: GPR17 cAMP Assay Protocol:
CHO-K1 cells stably expressing vector containing untagged human GPR17 short isoform (Roche) were cultured at 37° C./5% CO2 in DMEM (Dulbecco's Modified Eagle Medium):F-12 (1:1) supplemented with 10% foetal bovine serum and 400 μg/ml Geneticin.
Changes in intracellular cyclic adenosine monophosphate (cAMP) levels were quantified using the Nano-TRF Detection Assay kit (Roche Diagnostics, Cat. No. 05214386001). This assay allows for direct cAMP quantification in a homogeneous solution. cAMP is detected based on time-resolved fluorescence energy transfer (TR-FRET) and competitive binding of ruthenylated cAMP and endogenous cAMP to an anti-cAMP monoclonal antibody labeled with AlexaFluor-700. The Ruthenium complex serves as the FRET donor and transfers energy to AlexaFluor-700. The FRET signal is inversely proportional to the cAMP concentration.
CHO-GPR17S cells were detached with Accutase and resuspended in assay buffer consisting of Hank's Balanced Salt Solution (HBSS), 10 mM HEPES (4-(2-hydroxyethyl) piperazine-1-ethanesulfonic acid solution) and 0.1% bovine serum albumin (pH 7.4). The cells were seeded in black 384-well plates (Corning) at a density of 10′000 cells/20 μl assay buffer until the addition of compounds.
Test antagonist compounds were serially diluted in dimethyl sulfoxide (DMSO) and spotted in 384-well plates. The compounds were then diluted in BSS buffer supplemented with an EC80 concentration of MDL29,951 (3-(2-Carboxy-4,6-dichloroindol-3-yl)propionic acid) (GPR17 agonist) plus 3-Isobutyl-1-methylxanthine (IBMX) (0.5 mM final concentration) and added to the cells at room temperature. Forskolin (15 μM final concentration) was added 5 minutes after the test compounds and the cells were incubated at room temperature for 30 minutes. The assay was stopped by adding cAMP detection mix (containing detergents for cell lysis) for 90 minutes at room temperature.
Cellular cAMP was measured using a Paradigm reader (Molecular Devices). The raw data was used to calculate the FRET signal based on the assay's P-factor as per cAMP kit instructions. The data was normalized to the maximal activity of a reference antagonist and dose response curves were fitted to the percent activity of the test compounds using a sigmoidal dose response model (Genedata Screener).
Results in the hGPR17 cAMP assay are provided for compounds of formula I in Table 1

Sequence of human GPR17 short isoform (Q13304 29-367): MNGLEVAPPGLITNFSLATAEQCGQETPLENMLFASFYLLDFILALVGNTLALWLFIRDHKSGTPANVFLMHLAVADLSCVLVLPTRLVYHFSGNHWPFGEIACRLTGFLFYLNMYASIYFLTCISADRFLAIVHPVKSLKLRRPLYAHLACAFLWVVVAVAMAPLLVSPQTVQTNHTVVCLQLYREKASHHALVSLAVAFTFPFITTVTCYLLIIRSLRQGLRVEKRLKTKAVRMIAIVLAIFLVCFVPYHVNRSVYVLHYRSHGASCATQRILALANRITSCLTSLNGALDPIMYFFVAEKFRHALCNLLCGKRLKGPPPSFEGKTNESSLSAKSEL

`CN(C)c1ccc2c(S(=O)(=O)Nc3cc(F)c(CC#N)cc3F)cccc2n1` [Example 32, N-[4-(cyanomethyl)-2,5-difluoro-phenyl]-2-(dimethylamino)quinoline-5-sulfonamide] and `N#CCc1cc(F)c(NS(=O)(=O)c2cccc3ccccc23)cc1F` [Example 1, N-(4-(cyanomethyl)-2,5-difluorophenyl)naphthalene-1-sulfonamide] are within 1.5-fold of each other in IC50: 238 nM for the first, 282 nM for the second.

Going from `COc1nc(OCC(F)F)c(F)cc1NS(=O)(=O)c1cncc2c(C#N)c(Cl)ccc12` [Example 46, 7-chloro-8-cyano-N-[6-(2,2-difluoroethoxy)-5-fluoro-2-methoxy-3-pyridyl]isoquinoline-4-sulfonamide] to `COc1nc(OCC(F)F)c(F)cc1NS(=O)(=O)c1cncc2cc(Cl)ccc12` [Example 15, 7-chloro-N-[6-(2,2-difluoroethoxy)-5-fluoro-2-methoxy-3-pyridyl]isoquinoline-4-sulfonamide], the IC50 falls from 253 nM to 11 nM (23-fold).

Compared with `O=c1[nH]cc(S(=O)(=O)Nc2cc(F)c(OC(F)F)nc2OC(F)F)c2ccc(Cl)cc12` [Example 27, N-[2,6-bis(difluoromethoxy)-5-fluoro-3-pyridyl]-7-chloro-1-keto-2H-isoquinoline-4-sulfonamide], `COc1nc(NS(=O)(=O)c2c[nH]c(=O)c3cc(Cl)ccc23)c(F)cc1OCC(F)F` [Example 25, 7-chloro-N-[5-(2,2-difluoroethoxy)-3-fluoro-6-methoxy-2-pyridyl]-1-oxo-2H-isoquinoline-4-sulfonamide] is 1.6-fold higher in IC50: 32 nM for the first, 50 nM for the second.

First: COc1nc(OCC(F)F)c(F)cc1NS(=O)(=O)c1cn(C)c(=O)c2cc(Cl)ccc12 [Example 36, 7-chloro-N-[6-(2,2-difluoroethoxy)-5-fluoro-2-methoxy-3-pyridyl]-1-keto-2-methyl-isoquinoline-4-sulfonamide]
Second: COc1nc(OCC(F)F)c(F)cc1NS(=O)(=O)c1cc(=O)n(C)c2cc(Cl)ccc12 [Example 37, 7-chloro-N-[6-(2,2-difluoroethoxy)-5-fluoro-2-methoxy-3-pyridyl]-2-keto-1-methyl-quinoline-4-sulfonamide]
The IC50 of the first is 1.5-fold higher: 371 nM for the first, 246 nM for the second. The second is the more potent here.

Going from `COc1nc(NS(=O)(=O)c2cccc3nc(Cl)ccc23)nc(OC)c1CC(F)F` [Example 8, 2-chloro-N-[5-(2,2-difluoroethyl)-4,6-dimethoxy-pyrimidin-2-yl]quinoline-5-sulfonamide] to `COc1nc(NS(=O)(=O)c2cccc3nc(Cl)ccc23)nc(OC)c1OC(F)F` [Example 51, 2-chloro-N-[5-(difluoromethoxy)-4,6-dimethoxy-pyrimidin-2-yl]quinoline-5-sulfonamide], the IC50 rises from 174 nM to 448 nM (2.6-fold). The first is the more potent here.

`COc1nc(OCC(F)F)c(F)cc1NS(=O)(=O)c1cccc2nc(Br)ccc12` [Example 54, 2-bromo-N-[6-(2,2-difluoroethoxy)-5-fluoro-2-methoxy-3-pyridyl]quinoline-5-sulfonamide] and `COc1nc(OCC(F)F)c(F)cc1NS(=O)(=O)c1cccc2nc(C)ccc12` [Example 33, N-[6-(2,2-difluoroethoxy)-5-fluoro-2-methoxy-3-pyridyl]-2-methyl-quinoline-5-sulfonamide] are within 1.5-fold of each other in IC50: 9 nM for the first, 11 nM for the second.

First: COc1nc(OC(F)F)c(F)cc1NS(=O)(=O)c1cncc2cc(Cl)ccc12 [Example 13, 7-chloro-N-[6-(difluoromethoxy)-5-fluoro-2-methoxy-3-pyridyl]isoquinoline-4-sulfonamide]
Second: COc1nc(OC(F)F)c(F)cc1NS(=O)(=O)c1ccnc2cc(Cl)ccc12 [Example 48, 7-chloro-N-[6-(difluoromethoxy)-5-fluoro-2-methoxy-3-pyridyl]quinoline-4-sulfonamide]
The IC50 of the first is 1.7-fold lower: 92 nM for the first, 154 nM for the second. The first is the more potent here.

First: N#CCc1cc(F)c(NS(=O)(=O)c2c[nH]c(=O)c3cc(Cl)ccc23)cc1F [Example 21, 7-chloro-N-[4-(cyanomethyl)-2,5-difluoro-phenyl]-1-keto-2H-isoquinoline-4-sulfonamide]
Second: N#CCc1cc(F)c(NS(=O)(=O)c2c[nH]c(=O)c3ccccc23)cc1F [Example 52, N-(4-(cyanomethyl)-2,5-difluorophenyl)-1-oxo-1,2-dihydroisoquinoline-4-sulfonamide]
The IC50 of the first is 3.4-fold lower: 174 nM for the first, 594 nM for the second.

First: COc1nc(OC(F)F)c(F)cc1NS(=O)(=O)c1cccc2nc(Cl)ccc12 [Example 6, 2-chloro-N-[6-(difluoromethoxy)-5-fluoro-2-methoxy-3-pyridyl]quinoline-5-sulfonamide]
Second: COc1nc(OCC(F)F)c(F)cc1NS(=O)(=O)c1cccc2nc(Cl)ccc12 [Example 10, 2-chloro-N-[6-(2,2-difluoroethoxy)-5-fluoro-2-methoxy-3-pyridyl]quinoline-5-sulfonamide]
The IC50 of the first is 1.8-fold higher: 49 nM for the first, 28 nM for the second. The second is the more potent here.

Going from `COc1nc(NS(=O)(=O)c2cccc3nc(Cl)ccc23)c(F)cc1OCC(F)F` [Example 9, 2-chloro-N-[5-(2,2-difluoroethoxy)-3-fluoro-6-methoxy-2-pyridyl]quinoline-5-sulfonamide] to `COc1nc(OCC(F)F)c(F)cc1NS(=O)(=O)c1cccc2nc(C(F)F)ccc12` [Example 35, N-[6-(2,2-difluoroethoxy)-5-fluoro-2-methoxy-3-pyridyl]-2-(difluoromethyl)quinoline-5-sulfonamide], the IC50 falls from 495 nM to 214 nM (2.3-fold). The second is the more potent here.

`CN(C)c1ncc(S(=O)(=O)Nc2cc(F)c(CC#N)cc2F)c2ccc(Cl)cc12` [Example 42, 7-chloro-N-[4-(cyanomethyl)-2,5-difluoro-phenyl]-1-(dimethylamino)isoquinoline-4-sulfonamide] and `CNc1ncc(S(=O)(=O)Nc2cc(F)c(CC#N)cc2F)c2ccc(Cl)cc12` [Example 44, 7-chloro-N-[4-(cyanomethyl)-2,5-difluoro-phenyl]-1-(methylamino)isoquinoline-4-sulfonamide] are within 1.5-fold of each other in IC50: 423 nM for the first, 315 nM for the second.

Compared with `COc1nc(NS(=O)(=O)c2c[nH]c(=O)c3cc(Cl)ccc23)ncc1OCCF` [Example 22, 7-chloro-N-[5-(2-fluoroethoxy)-4-methoxy-pyrimidin-2-yl]-1-keto-2H-isoquinoline-4-sulfonamide], `COc1ncc(S(=O)(=O)Nc2cc(F)c(CC#N)cc2F)c2ccc(Cl)cc12` [Example 49, 7-chloro-N-[4-(cyanomethyl)-2,5-difluoro-phenyl]-1-methoxy-isoquinoline-4-sulfonamide] is 2.7-fold higher in IC50: 331 nM for the first, 905 nM for the second. The first is the more potent here.

Going from `COc1nc(OCC(F)F)c(F)cc1NS(=O)(=O)c1cccc2nc(N(C)C)ccc12` [Example 31, N-[6-(2,2-difluoroethoxy)-5-fluoro-2-methoxy-3-pyridyl]-2-(dimethylamino)quinoline-5-sulfonamide] to `COc1nc(OCC(F)F)c(F)cc1NS(=O)(=O)c1cccc2c(Cl)cccc12` [Example 18, 5-chloro-N-[6-(2,2-difluoroethoxy)-5-fluoro-2-methoxy-3-pyridyl]naphthalene-1-sulfonamide], the IC50 falls from 65 nM to 43 nM (1.5-fold). The second is the more potent here.

First: COc1nc(CC#N)c(F)cc1NS(=O)(=O)c1cccc2nc(Cl)ccc12 [Example 5, 2-chloro-N-[6-(cyanomethyl)-5-fluoro-2-methoxy-3-pyridyl]quinoline-5-sulfonamide]
Second: COc1nc(C2CC2)c(F)cc1NS(=O)(=O)c1cccc2nc(Cl)ccc12 [Example 4, 2-chloro-N-(6-cyclopropyl-5-fluoro-2-methoxy-3-pyridyl)quinoline-5-sulfonamide]
The IC50 of the first is 2.4-fold lower: 19 nM for the first, 45 nM for the second. The first is the more potent here.

`COc1nc(OCC(F)F)c(F)cc1NS(=O)(=O)c1cccc2c1CCC(C)O2` (stereo not drawn) [Example 16, N-[6-(2,2-difluoroethoxy)-5-fluoro-2-methoxy-3-pyridyl]-2-methyl-chromane-5-sulfonamide] and `COc1nc(OCC(F)F)c(F)cc1NS(=O)(=O)c1cncc2nc(Cl)ccc12` [Example 50, 2-chloro-N-[6-(2,2-difluoroethoxy)-5-fluoro-2-methoxy-3-pyridyl]-1,7-naphthyridine-5-sulfonamide] are within 1.5-fold of each other in IC50: 31 nM for the first, 38 nM for the second.

Going from `CNc1cc(S(=O)(=O)Nc2cc(F)c(OCC(F)F)nc2OC)c2ccc(Cl)cc2n1` [Example 45, 7-chloro-N-[6-(2,2-difluoroethoxy)-5-fluoro-2-methoxy-3-pyridyl]-2-(methylamino)quinoline-4-sulfonamide] to `N#CCc1cc(F)c(NS(=O)(=O)c2cncc3cc(Cl)ccc23)cc1F` [Example 12, 7-chloro-N-[4-(cyanomethyl)-2,5-difluoro-phenyl]isoquinoline-4-sulfonamide], the IC50 rises from 72 nM to 260 nM (3.6-fold).

Work on `N#CCc1cc(F)c(NS(=O)(=O)c2cccc3c(Cl)cccc23)cc1F` [Example 17, 5-chloro-N-[4-(cyanomethyl)-2,5-difluoro-phenyl]naphthalene-1-sulfonamide] yielded an IC50 of 88 nM.

— patent US20260027104A1, “NOVEL NAPHTHYL AND ISOQUINOLINE SULFONAMIDE DERIVATIVES” (Hoffmann-La Roche Inc., priority 2022, published 2026)
